Source: US20110263693A1, “CELASTROL, GEDUNIN, AND DERIVATIVES THEREOF AS HSP90 INHIBITORS” (DANA-FARBER CANCER INSTITUTE, INC., priority 2006, published 2011)

Experiments:
[1] = tested on: androgen signaling signature in LNCaP cells; test: GE-HTS androgen signaling signature assay / screen; settings: for GE-HTS screen # replicates that score as the androgon deprived state (n = 3): KNN / GE-HTS screen # replicates that score as the androgon deprived state (n = 3): Naïve Bayes classifier (P < 0.05) / GE-HTS screen # replicates that score as the androgon deprived state (n = 3): unweighted summed score (P < 0.05) / GE-HTS screen # replicates that score as the androgon deprived state (n = 3): weighted summed score (P < 0.05): LNCaP, 1 nM R1881 plus compound ~20 μM, 24 hr, count of 3 replicates
LNCaP cells = test: Viability screen, luminescent ATP quantitation assay; settings: 1 nM R1881 plus compound ~20 μM, 3 days
gedunin signature = test: Connectivity Map query with the gedunin signature; assay type: cell-based, human; design: key to gedunin score (connectivity score): connectivity score, based on Kolmogorov-Smirnov statistic; settings: for gedunin score (connectivity score): enrichment of the gedunin signature (20 μM gedunin at 6 hours, LNCaP) in the compound's Connectivity Map profiles, 6 hr treatment; for gedunin rank: rank by gedunin score among 164 Connectivity Map compounds
Procedure, shortened: (§1)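 LNCaP cells received celastrol 1.25 μM or gedunin 20 μM for 6 h. Each signature was scored by Kolmogorov–Smirnov-based connectivity against 453 build01 profiles, mostly 6 h treatments of MCF7 cells.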

celastrol signature = test: Connectivity Map query with the celastrol signature; assay type: cell-based, human; design: key to celastrol score (connectivity score): connectivity score, based on Kolmogorov-Smirnov statistic; settings: for celastrol score (connectivity score): enrichment of the celastrol signature (1.25 μM celastrol at 6 h, LNCaP) in the compound's Connectivity Map profiles, 6 hr treatment; for celastrol rank: rank by celastrol score among 164 Connectivity Map compounds
Procedure, shortened: as §1

[2] = control wells, 1 nM R1881 plus 10 μM casodex, count of n = 336

Molecule	GE-HTS screen # replicates that score as the androgon deprived state (n = 3): KNN [1]	GE-HTS screen # replicates that score as the androgon deprived state (n = 3): Naïve Bayes classifier (P < 0.05) [1]	GE-HTS screen # replicates that score as the androgon deprived state (n = 3): unweighted summed score (P < 0.05) [1]	GE-HTS screen # replicates that score as the androgon deprived state (n = 3): weighted summed score (P < 0.05) [1]	also measured
CC(=O)O[C@H]1CC[C@]2(C)C(C[C@@H](OC(C)=O)[C@]3(C)C4=CC(=O)O[C@H](c5ccoc5)[C@@]4(C)CCC23)C1(C)C (stereo partly drawn) [3-deoxo-3beta-acetoxydeoxydihydrogedunin]	3	3	3	3	viability screen: viability (% [ATP] normalized to R1881-treated control) (LNCaP cells): 51.0%
CC(=O)O[C@@H]1CC2C(C)(C)[C@H](O)CC[C@]2(C)C2CC[C@@]3(C)[C@H](c4ccoc4)OC(=O)C4OC43[C@@]21C (stereo partly drawn) [3alpha-hydroxydeoxodihydrogedunin]	3	3	3	3	
CC1(C)C(=O)C=C[C@]2(C)[C@H]3CC[C@@]4(C)[C@H](c5ccoc5)OC(=O)[C@H]5O[C@]54[C@]3(C)C=C[C@@H]12 [7-desacetoxy-6,7-dehydrogedunin]	3	3	3	3	
CC(=O)O[C@H]1CC[C@]2(C)[C@H]3C(=O)C=C4[C@@H]5[C@@H](C)[C@H](C)CC[C@]5(C(=O)O)CC[C@@]4(C)[C@]3(C)CC[C@H]2C1(C)C [11-oxoursolic acid acetate]	3	1	3	2	
CC(C)(C)c1cc(/C=C(\C#N)C(N)=S)cc(C(C)(C)C)c1O [AG-879, reference compound]	3	2	2	2	
C=C/C(C)=C\CC1C(C)(O)CCC2C(C)(C)CCCC21C (stereo not shown) [abienol]	2	1	3	3	
COc1ccc(C(C)C(=O)c2ccc(O)cc2O)cc1 (stereo not shown) [angolensin]	3	3	3	3	
CC(O)(CS(=O)(=O)c1ccc(F)cc1)C(=O)Nc1ccc(C#N)c(C(F)(F)F)c1 (stereo not shown) [casodex, bicalutamide, reference compound]					GE-HTS screen # replicates that score as the androgon deprived state: KNN [1, 2]: 283; GE-HTS screen # replicates that score as the androgon deprived state: Naïve Bayes classifier (P < 0.05) [1, 2]: 268; GE-HTS screen # replicates that score as the androgon deprived state: unweighted summed score (P < 0.05) [1, 2]: 257; GE-HTS screen # replicates that score as the androgon deprived state: weighted summed score (P < 0.05) [1, 2]: 261
CCCCCCCCCCCCCCCC[N+](C)(C)C.[Br-] [cetrimonium bromide, reference compound]	3	3	0	0	viability screen: viability (% [ATP] normalized to R1881-treated control) (LNCaP cells): 109.7%
CC1(C)C(=O)C=C[C@]2(C)[C@H]3CC[C@@]4(C)[C@H](c5ccoc5)OC(=O)[C@H]5O[C@]54[C@]3(C)C(=O)C[C@@H]12 [deacetoxy-7-oxogedunin]	3	3	3	3	viability screen: viability (% [ATP] normalized to R1881-treated control) (LNCaP cells): 69.0%
CC(=O)O[C@@H]1CC2C(C)(C)CCC[C@]2(C)C2CC[C@]3(C)C(=CC(=O)O[C@H]3c3ccoc3)[C@@]21C (stereo partly shown) [deoxodeoxydihydrogedunin]	0	3	2	2	
CC(=O)O[C@@H]1C[C@H]2C(C)(C)C(=O)C=C[C@]2(C)[C@H]2CC[C@]3(C)C(=CC(=O)O[C@H]3c3ccoc3)[C@@]21C [deoxygedunin]	2	2	3	3	viability screen: viability (% [ATP] normalized to R1881-treated control) (LNCaP cells): 63.3%
CC1(C)C(=O)CC[C@]2(C)[C@H]3CC[C@]4(C)C(=CC(=O)O[C@H]4c4ccoc4)[C@]3(C)[C@H](O)C[C@@H]12 [dihydro-7-desacetyldeoxygedunin]	3	2	2	1	
CN(C)CCOC(c1ccccc1)c1ccccc1.Cn1c(=O)c2[nH]c(Cl)nc2n(C)c1=O [dimenhydrinate, reference compound]	3	3	0	0	
COP(=S)(OC)Oc1ccc([N+](=O)[O-])cc1 [methyl parathione]	3	1	3	0	
CC[C@@]1([C@@H]2O[C@@H]([C@H]3O[C@@](O)(CO)[C@H](C)C[C@@H]3C)C[C@@H]2C)CC[C@H]([C@]2(C)CC[C@]3(C[C@H](O)[C@@H](C)[C@@H]([C@@H](C)[C@@H](OC)[C@H](C)C(=O)O)O3)O2)O1 [monensin A, reference compound]	2	2	0	0	viability screen: viability (% [ATP] normalized to R1881-treated control) (LNCaP cells): 113.6%
C[C@@H]1[C@H](O)[C@@H](C)/C=C/C=C/CC/C=C/C=C/C=C/C=C/C(O[C@H]2O[C@H](C)[C@@H](O)[C@H](N)[C@@H]2O)CC2O[C@](O)(CC(O)C(O)CCC(O)CC(O)CC(O)CC(=O)O[C@H]1C)CC(O)C2C(=O)O (stereo partly shown) [nystatin, reference compound]	2	2	0	0	viability screen: viability (% [ATP] normalized to R1881-treated control) (LNCaP cells): 74.5%
COC(=O)[C@H](O)[C@H]1C(C)(C)[C@H](OC(C)=O)[C@@H]2CC3=C4CC(=O)O[C@@H](c5ccoc5)[C@]4(C)CC[C@@H]3[C@@]1(C)C2=O [swietenolide-3-acetate]	2	2	2	2	
BW-B70C					gedunin score (connectivity score) (gedunin signature): 0.557; gedunin rank (gedunin signature): 12; celastrol score (connectivity score) (celastrol signature): 0.719; celastrol rank (celastrol signature): 10
avermectin B1 [reference compound]	3	2	2	2	
butirosin					gedunin score (connectivity score) (gedunin signature): −0.55; gedunin rank (gedunin signature): 162; celastrol score (connectivity score) (celastrol signature): 0; celastrol rank (celastrol signature): 132
depudecin					gedunin score (connectivity score) (gedunin signature): 0.176; celastrol score (connectivity score) (celastrol signature): 0.22
ikarugamycin					gedunin score (connectivity score) (gedunin signature): 0; gedunin rank (gedunin signature): 124; celastrol score (connectivity score) (celastrol signature): 0.172; celastrol rank (celastrol signature): 59
methylnortichexanthone	3	2	2	2	
